The source of these data is patent US20060233877A1, “Betaine compositions” (priority 2002, published 2006).

The test system of data set [1] is platelet adhesion and thrombus formation on collagen coated surface. Nature of the data set: Parallel plate chamber: platelet adhesion and thrombus formation on collagen coated surface at 60 dynes/cm^2. In kind it is cell-based, human. From the text: The synergistic effect of asa/betaine on platelet adhesion is studied by perfusing blood on thrombogenic surface such as collagen under shear stress conditions.
Effect of betaine, aspirin or betaine/aspirin combination on platelet adhesion and thrombus formation on collagen coated surface.
We studied the effect of asafbetaine on platelet adhesion and thrombus formation under laminar flow at high shear stress (60 dynes/cm^2) on a collagen coated surface. This high shear stress mimics stenosed arteries. The blood of four fastened healthy subjects was sampled on day 1 as to determine basal values and betaine effect when added in vitro (table1), then the subjects were orally administrated a daily oral bolus dose of 350 mg of ASA during 3 days and their blood sampled on day 3 as to determine ASA effect and ASA+betaine effect when betaine is added in vitro to aspirinized blood at different concentrations (table2).
Citrated human aspirinized blood was pre-labelled with mepacrine and exposed to vehicle alone or betaine (20, 40, and 80 μg/ml) for 20 minutes before perfusion.
The effect of asa/betaine has been evaluated by performing experiments 60 dynes/cm^2 witch mimics arterial thrombosis. Before perfusion citrated whole blood was incubated with saline alone or betaine at concentration of 20, 40, and 80 μg/ml for 20 minutes and then perfused on collagen at 60 dynes/cm^2 At the end of 2 minutes of perfusion, cells were fixed and the area covered by thrombi was calculated by analysis of fluorescent thrombus images acquired by confocal microscopy.
Collagen coated slides. Glass slides were with collagen (200 μg/ml; equine collagen), placed for 1 hour in a water bath at 37° C., and the collagen gel allowed to evaporate for 30 minutes under a ventilated hood. Perfusion with citrated whole blood was started and continued for 2 minutes, then blood was withdrawn from the circuit, and platelet thrombi adherent to the collagen coated surface were fixed and stained with May Grunwald-Giemsa.
Images of platelet thrombi were digitised using a light microscope connected to a computer-based image analysis system. The surface occupied by thrombi and mean thrombus area were evaluated by automatic edge detection using built-in specific functions of a software image.
Platelet adhesion and thrombus formation. Platelet adhesion assay was performed according to the described previously (Alevriadou et al., 1993; Boccardo et al., 1997) with minor modifications. Blood collected on citrate (3,8%) was perfused through a flow chamber using a syringe pump. A flow chamber thermostatized to 37° C. was used in which one surface of the perfusion channel is a glass slide coated with equine collagen.
Flow chamber. The chamber dimensions (30 mm long, 1 mm large, and 150 μm in the thickness) allow to obtain a wide range of shear rate low flow rates of blood.
Citrated whole blood was incubated with the fluorescent dye mepacrine 10 μM (quinacrine dihydrochloride BP; Sigma Chemical, St Louis. MO). Mepacrine concentrated in the dense granules of platelets and in the granules of leukocytes and, at this concentration has no effect on normal platelet function (3). Any fluorescence within the erythrocytes is quenched by haemoglobin. Blood was pre-incubated 5 minutes at 37° C. before perfusion. The system was filled with PBS pH 7.3, then perfusion with blood was started and maintained at the constant flow rate of 1500 sec^−1 (corresponding to a shear stress of 60 dynes/cm^2). After 2 min, perfusion was stopped and the slide with the collagen monolayer was dehydrated and fixed in acetone for 20 minutes.
Images of platelet thrombi on collagen surface were acquired by a confocal inverted laser microscope. The surface occupied by thrombi was evaluated by automatic edge detection using built-in specific functions of a software image.

For data set [2] the following is noted: cited from earlier work.
The test system of data set [3] is platelet aggregation induced by ADP. The data set can be described thus: Aggregation tests (whole blood aggregometry, ADP 5 μM) after subcutaneous dosing. In kind it is in vivo, Rats Wistar.
Data set [4] has as its system laser-induced thrombosis in the mesenteric microcirculation of the rat. Nature of the data set: Laser-induced thrombosis. In kind it is in vivo, Rats Wistar. As to conditions: for Duration of embolisation / Number of emboli: ASA 50 mg/kg s.c. From the text:
Principle of Laser-Induced Thrombosis ([…]. et al., 1989; […]. et al., 1983) In this model, lesion of the vascular wall is induced by a laser beam. This beam causes a limited lesion of the vascular endothelium (only 1 to 2 cells are destroyed). This laying bare of the sub-endothelium, which is a thrombogenetic surface, results in the adherence of platelets via glycoproteins. This adherence of platelets is followed by their activation, they form pseudopods and secrete the content of their granules. This activation results in the appearance of glycoprotein binding sites which are necessary for the aggregation of the platelets between them and for platelet adhesion to the thrombogenic surfaces. This lesion is induced in the mesenteric microcirculation of the rat. It is immediately followed by the formation of a thrombus (in a few seconds). This thrombus, which rapidly enlarges under the influence of the blood flow, embolises before being formed again. The substances were subcutaneously injected 1 hour before the tests.

Data set [5] can be described thus: Solubility in water / concentrated betaine solution. The class given is physicochemical.
[6] abbreviates: experiment A, ASA 100 mg/kg s.c.
Where [7] appears, read: experiment A, ASA 100 mg/kg s.c., mean.
Setting [8] is: experiment B, ASA 50 mg/kg s.c.
Setting [9] is: experiment B, ASA 50 mg/kg s.c., mean.

Several values for one entry are separate records, joined by “and”; a condition that tells them apart may be missing. Identical values can stand only once.

Consider `CC(=O)Oc1ccccc1C(=O)O` [ASA, acetylsalicylic acid], for which the “area covered by thrombi” value in data set [1] (aspirinized blood (350 mg ASA oral daily, 3 days) + saline) was 72856 pixels/field and 121321 pixels/field and 132458 pixels/field and 122652 pixels/field. Also, the solubility in water result in data set [2] is given as “about 0.3%”. Besides, the Amplitude was 2 ohm and 3 ohm and 4 ohm in data set [3] (setting [6]); 2.6 ± 0.89 ohm in data set [3] (setting [7]); 8 Ohm and 9 Ohm and 10 Ohm and 7 Ohm in data set [3] (setting [8]); 8.5 Ohm in data set [3] (setting [9]). Moreover, the velocity in data set [3] (setting [6]) was 4 ohm/min and 3 ohm/min and 5 ohm/min; in data set [3] (setting [7]), 3.8 ± 0.84 ohm/min; in data set [3] (setting [8]), 7 Ohm/min and 8 Ohm/min and 9 Ohm/min and 6 Ohm/min; in data set [3] (setting [9]), 7.33 Ohm/min. Also, the “Number of laser shoots” value in data set [4] (experiment A, ASA 100 mg/kg s.c. 1 hour before, rats 1-5 and mean) is 4 and 3; in data set [4] (experiment A, ASA 100 mg/kg s.c. 1 hour before, rats 1-5 and mean, mean), 3.2 ± 0.45; in data set [4] (experiment B, ASA 50 mg/kg s.c. 1 hour before, n=6 rats and mean), 2 and 3; in data set [4] (experiment B, ASA 50 mg/kg s.c. 1 hour before, n=6 rats and mean, mean), 2.33. Further, the Duration of embolisation in data set [4] (experiment B) is 4 min and 3 min and 2 min; in data set [4] (experiment B, mean), 2.5 min. In addition, the Number of emboli was 3 and 4 in data set [4] (experiment B); 3.33 in data set [4] (experiment B, mean). Further, the Number laser shoots in data set [4] (experiment C, ASA 100 mg/kg s.c. 1 hour before, 6 rats and mean) is 4 and 3 and 2.
Regarding `C[N+](C)(C)CC(=O)O` [betaine, Betaine monohydrate], the “area covered by thrombi” value was 88746 pixels/field and 135241 pixels/field and 122369 pixels/field and 154425 pixels/field in data set [1] (betaine 20 μg/ml in vitro, 20 minutes, subjects 1-4 and mean, monohydrate); 66852 pixels/field and 92433 pixels/field and 89628 pixels/field and 95645 pixels/field in data set [1] (betaine 40 μg/ml in vitro, 20 minutes, monohydrate); 57544 pixels/field and 81585 pixels/field and 76654 pixels/field and 82579 pixels/field in data set [1] (betaine 80 μg/ml in vitro, 20 minutes, monohydrate). In addition, in data set [1] (betaine 80 μg/ml, Table 1), the “reduction in platelet deposition in respect to vehicle” value is recorded as −49%. Moreover, the “effect on platelet deposition and thrombus formation” value in data set [1] (high shear stress, versus vehicle-treated blood) was “significantly inhibit platelet deposition and consequent thrombus formation”.
As for `O=C(O)c1ccccc1O` [salicylic acid], in data set [5] (cold concentrated betaine solution), the “amount that can be dissolved” value is recorded as “Up to 5%”. In data set [5] (cold concentrated betaine solution vs pure water), the “amount dissolved relative to pure water” value was 15 times.
